Results taken from paper PMC11233931, “Remodeling tumor‐associated macrophage for anti‐cancer effects by rational design of irreversible inhibition of mitogen‐activated protein kinase‐activated protein kinase 2” (MedComm, 2024).

What was measured:
p-Hsp27 = experiment: Cellular washout assay, p-Hsp27 by western blot; assay type: cell-based; details: 1 h pretreatment, then LPS
Description: FIGURE 4 Targeting cellular MK2 signaling with irreversible inhibition by compound 11. (A and B) RT‐PCR analysis of IL‐1β, TNF‐α, and IL‐6 expression in Lipopolysaccharides (LPS)‐stimulated THP‐1 (A) and RAW264.7 (B) Cells, with pre‐treatment of compound 11 for 3 h followed by LPS (3 h) stimulation. (C) The inhibitory effects of compound 11 on TNF‐α and IL‐6 production in LPS‐stimulated RAW264.7 macrophages for 24 h, measured by ELISA. (D and E) Compound 11, alongside CC‐99677 and PF‐3644022, suppressed MK2 pathway activation, validated through western blot analysis post‐LPS stimulation. Cells were preincubated with the specified compounds for 1 h prior to LPS stimulation (100 ng/mL, 30 min). (F) Distinguishes the mode of action between compound 11 and CC‐99677. The complex structure of a small molecule and MK2 (3R2Y) with the same parent nucleus as compound 11 is shown in cyans, and the complex structure of a small molecule and MK2 (3FYJ) with the same parent nucleus as CC‐99677 is shown in orange. (G–I) The effect of indicated inhibitor on Hsp27 phosphorylation following inhibitor washout. Cells were pretreated with indicated compounds for 1 h and then washed to remove free compound and incubated for a further indicated time before activation with LPS. In (A–C), LPS (100 ng/mL) served as the stimulation control, while untreated cells were the baseline control. The data represent as mean ± SD from triplicates, with statistical analysis conducted via one‐way analysis of variance (ANOVA) (^## p < 0.01, ^### p < 0.001 vs. stimulation control; ^***p < 0.001 vs. baseline control).
Furthermore, to validate the irreversible mechanism of action of compound 11 at the cellular level, we performed a cellular washout assay and assessed p‐Hsp27 levels. The established MK2 irreversible inhibitor CC‐99677 served as positive control, while the reversible ATP‐competitive inhibitor PF‐3644022 was used as negative control. […] In contrast, only 1 h after PF‐3644022 washout, p‐Hsp27 level was totally recovered (Figure 4I).
After the treatment outlined in the figure legends, cells were lysed using 1× sodium dodecyl sulfate (SDS) solution. The lysates were then subjected to SDS‐polyacrylamide gel electrophoresis for separation, followed by transferring onto nitrocellulose membranes. The membranes were incubated with primary antibodies specific to phospho‐MK2, phospho‐Hsp27, MK2, Hsp27, GAPDH, and β‐actin (Cell Signaling Technology), followed by horseradish peroxidase‐conjugated anti‐mouse or anti‐rabbit IgG secondary antibodies. Protein bands were detected using an enhanced chemiluminescence detection reagent (Thermo Fisher Scientific).

[1] = test system: TAMs and CD206+ TAMs in MC38 tumor; experiment: Flow cytometry of tumor infiltrating TAMs in MC38 tumor model; assay type: in vivo, mouse; details: treated 9 days
Description: FIGURE 5 Inhibition of pro‐tumorigenic M2‐like polarization in macrophages by compound 11. (A–C) RT‐PCR analysis highlights the impact of compound 11 on MRC1 and ARG‐1 mRNA expression in various macrophage cells treated with IL‐4/IL‐13 alone or combined with compound 11 for 12 h or 24 h. (D) CD206 and Arg‐1 expression in bone marrow‐derived macrophages (BMDM) cells via flow cytometry post 48 h treatment of compound 11 and IL‐4/IL‐13. (E) The treatment effects of compound 11 in THP‐1 cells using western blot analysis. Cells were pretreated with compound 11 for 1 h and followed by IL‐4/IL‐13 treatment (30 min). (F) The influence of MK2 siRNA on MRC1 and ARG‐1 mRNA expression in THP‐1 cells by RT‐PCR analysis post‐IL‐4/IL‐13 stimulation (12 h). […] Data are shown as the mean ± SD. ^* p < 0.05; ^*** p < 0.001 versus the vehicle group, determined by unpaired t test. […]
Antibodies targeting specific proteins along with corresponding isotype controls or FMO controls were employed to examine the leukocyte infiltrate: CD11b, CD45, CD206, Arg‐1, and F4/80 (BD, eBioscience and Biolegend). […] Eventually, the gathered data were analyzed using the FlowJo software, with the gating strategies utilized for flow cytometry represented in Figure S5.

[2] = test system: TNF-α, IL-6 and IL-1β mRNA in THP-1 cell-line-derived macrophage; experiment: RT-PCR of cytokine mRNA in LPS-stimulated THP-1 derived macrophages; assay type: cell-based, human; details: THP-1 derived macrophage; 3 h pre-treatment, LPS 100 ng/mL 3 h
From the text: MK2 is recognized for inducing the production of pathological cytokines that fuel inflammation, including IL‐6, TNF‐α, and IL‐1β. These cytokines are the classic downstream target gene of MK2 and are identified as significant contributors to the risk of inflammation‐driven cancer,[34], [35], [36] such as colorectal cancer and hepatocellular carcinoma. Therefore, we assessed the transcriptional levels of these typical downstream cytokines in human monocytic THP‐1 cell‐line‐derived macrophage and the mouse RAW264.7 macrophage cell line under the influence of compound 11. […] Taken together, our findings corroborate that compound 11 effectively impedes the transcription and production of these key MK2 downstream pro‐inflammatory cytokines.
FIGURE 4 Targeting cellular MK2 signaling with irreversible inhibition by compound 11. […] (C) The inhibitory effects of compound 11 on TNF‐α and IL‐6 production in LPS‐stimulated RAW264.7 macrophages for 24 h, measured by ELISA. […]
Total RNA was extracted from cultured cells using the EZ‐press RNA Purification Kit (EZBioscience). Complementary DNA was synthesized using the ABScript III RT Master Mix for qPCR with gDNA remover (ABclonal Technology) and was quantified with primers listed in Table S5. The relative mRNA expression levels were quantified through qPCR using the SYBR green gene expression assay (ABclonal Technology).

C=CC(=O)Nc1cc(-c2cc(-c3cc4c([nH]3)CCNC4=O)ccn2)ccc1OC(F)(F)F [compound 11]
p-Hsp27 level 3 h after inhibitor washout (p-Hsp27; 3 h): still significantly inhibited
time after inhibitor washout at which p-Hsp27 level recovered (p-Hsp27): 24 h
effect on total and M2-like (CD206+) TAM populations in tumor [1]: marked reduction
effect on LPS-induced TNF-α, IL-6 and IL-1 mRNA expression [2]: significantly inhibited
